Results from patent US9115149B2, “Heterocyclic compounds as inhibitors of fatty acid biosysnthesis for bacterial infections” (Vitas Pharma Research Private Limited, priority 2011, dated 2015).
Values after ≈ are worked out from the molar mass of the structure shown. Like-named read-outs stand apart in the source and are kept apart here.

Assays:
[1] = tested on: Staphylococcus aureus (ATCC29213); assay: MIC by microbroth dilution, methicillin sensitive S. aureus; type: cell-based; conditions: read-out: Minimum inhibitory concentration (MIC) Staphylococcus aureus (ATCC29213)
Experimental: (§1) Shown below are the biological activities of representative compounds of the invention. The compounds were tested by the microbroth dilution method (National committee for Clinical Laboratory Standards, M07-A8, Volume 29, 2009) to determine the Minimum Inhibitory Concentration (MIC) against Methicillin sensitive and resistant Staphylococcus aureus. The MICs in the presence of 10% BSA was also tested. Further, select compounds were tested for metabolic stability using mouse liver microsomes based on published protocols (Journal of Biological Sciences, 2008, 8, 1110-1114).

[2] = tested on: Methicillin resistant Staphylococcus aureus (ATCC 33591); assay: MIC by microbroth dilution, methicillin resistant S. aureus; type: cell-based; conditions: ATCC33591, read-out: Minimum inhibitory concentration (MIC) Methicillin resistant Staphylococcus aureus (ATCC 33591)
Experimental: as §1

[3] = tested on: Bacillus subtilis (ΔFabI, ΔFabL; Pxylose SaFabI); assay: Target specificity: MIC in B. subtilis expressing S. aureus FabI under xylose inducible promoter; type: cell-based
Experimental: To test for target specificity, the MIC was determined in a Bacillus subtilis strain in which the two FabI homologues (FabI and FabL) were deleted and replaced with S. aureus FabI (Sa FabI) under a Xylose inducible promoter. By varying the amount of xylose in the growth medium, the expression of FabI was proportionately modified. Compounds specifically targeting Sa FabI show an increased MIC when higher amounts of FabI are present in the cell (high Xylose concentrations). In contrast, when FabI levels are low, the cell becomes hypersusceptible, reducing the MIC (low Xylose concentrations). […] Shown below are data for target specificity.

[4] = Metabolic stability in mouse liver microsomes; type: in vitro ADME
Experimental: as §1

[5] = Pharmacokinetic profile in male Swiss albino mice; conditions: mouse, in vivo
Experimental: The following compounds were dosed to male Swiss albino mice to determine the pharmacokinetic profiles.

[6] = tested on: Methicillin resistant Staphylococcus aureus (ATCC 33591); assay: MIC in the presence of BSA; type: cell-based; conditions: ATCC33591, 10% BSA
Experimental: as §1

[7] = read-out: MIC in the presence of 0.005% Xylose (low Xylose concentration)
[8] = read-out: MIC in the presence of 0.5% Xylose (high Xylose concentration)
[9] = intravenous single dose 5 mg/kg body weight

Row | Compound | MIC [1] [µg/mL] | MIC [2] [µg/mL] | MIC [3, 7] [ng/mL] | MIC [3, 8] [ng/mL] | Metabolic stability (mouse liver microsomes) % of compound remaining after 30 minutes [4] [%] | AUC [5, 9] [ng·h/mL] | Cmax [5, 9] [ng/mL] | clearance [5, 9] [mL/min/kg] | half-life [5, 9] [min] | bioavailability ([5]; po) [%] | MIC [6] [µg/mL]
1 | CN(Cc1cc2ccccc2n1C)C(=O)/C=C/c1cnc2[nH]c(=O)[nH]c2c1 [VT-02-00002, (E)-N-methyl-N-((1-methyl-1H-indol-2-yl)methyl)-3-(2-oxo-2,3-dihydro-1H-imidazo[4,5-b]pyridin-6-yl)acrylamide] | 1 (≈ 2.77 µM) | 2 (≈ 5.53 µM) | 60 | 1000 |  |  |  |  |  |  | 
2 | CN(Cc1cc2ccccc2n1C)C(=O)/C=C/c1cnc2[nH]nc(N)c2c1 [VT-02-00029a, (E)-3-(3-amino-1H-pyrazolo[3,4-b]pyridin-5-yl)-N-methyl-N-((1-methyl-1H-indol-2-yl)methyl)acrylamide] | 1 (≈ 2.77 µM) | 2 (≈ 5.55 µM) | 30 | 500 |  |  |  |  |  |  | 
3 | CN(Cc1cc2ccccc2n1C)C(=O)/C=C/c1cnc2[nH]ncc2c1 [VT-02-00032, (E)-N-Methyl-N-(1-methyl-1H-indol-2-ylmethyl)-3-(1H-pyrazolo[3,4-b]pyridin-5-yl)-acrylamide] | 4 (≈ 11.6 µM) | 4 (≈ 11.6 µM) | 125 | 4000 |  |  |  |  |  |  | 
4 | CN(Cc1cc2ccccc2n1C)C(=O)/C=C/c1cnc2[nH]c3ccccc3c2c1 [VT-02-00034, (E)-N-methyl-N-((1-methyl-1H-indol-2-yl)methyl)-3-(9H-pyrido[2,3-b]indol-3-yl)acrylamide] | > 64 | > 64 |  |  |  |  |  |  |  |  | 
5 | CN(Cc1cc2ccccc2n1C)C(=O)/C=C/c1ccc2[nH]c3ncccc3c2c1 [VT-02-00034a, (E)-N-methyl-N-((1-methyl-1H-indol-2-yl)methyl)-3-(9H-pyrido[2,3-b]indol-6-yl)acrylamide] | > 32 | > 32 |  |  |  |  |  |  |  |  | 
6 | CNc1n[nH]c2ncc(/C=C/C(=O)N(C)Cc3cc4ccccc4n3C)cc12 [VT-02-00036, (E)-N-Methyl-3-(3-methylamino-1H-pyrazolo[3,4-b]pyridin-5-yl)-N-(1-methyl-1H-indol-2-ylmethyl)-acrylamide] | 8 (≈ 21.4 µM) | 8 (≈ 21.4 µM) | 500 | 2000 |  |  |  |  |  |  | 
7 | CN1CCC(Nc2n[nH]c3ncc(/C=C/C(=O)N(C)Cc4cc5ccccc5n4C)cc23)CC1 [VT-02-00037, (E)-N-methyl-N-((1-methyl-1H-indol-2-yl)methyl)-3-(3-(1-methylpiperidin-4-ylamino)-1H-pyrazolo[3,4-b]pyridin-5-yl)acrylamide] | > 32 | > 32 |  |  |  |  |  |  |  |  | 
8 | CCNc1n[nH]c2ncc(/C=C/C(=O)N(C)Cc3cc4ccccc4n3C)cc12 [VT-02-00038, (E)-3-(3-(ethylamino)-1H-pyrazolo[3,4-b]pyridin-5-yl)-N-methyl-N-((1-methyl-1H-indol-2-yl)methyl)acrylamide] | > 32 | > 32 |  |  |  |  |  |  |  |  | 
9 | CN(Cc1cc2ccccc2n1C)C(=O)/C=C/c1cnc2[nH]nc(N(C)C)c2c1 [VT-02-00039, (E)-3-(3-Dimethylamino-1H-pyrazolo[3,4-b]pyridin-5-yl)-N-methyl-N-(1-methyl-1H-indol-2-ylmethyl)-acrylamide] | 2 (≈ 5.15 µM) | 2 (≈ 5.15 µM) | 60 | 1000 | 46 | 908 | 868 | 91.5 | 46.2 | 19 | 
10 | CN(Cc1cc2ccccc2n1C)C(=O)/C=C/c1cnc2[nH]c(=O)n(C)c2c1 [VT-02-00043, (E)-N-Methyl-N-(1-methyl-1H-indol-2-ylmethyl)-3-(1-methyl-2-oxo-2,3-dihydro-1H-imidazo[4,5-b]pyridin-6-yl)-acrylamide] | 4 (≈ 10.7 µM) | 8 (≈ 21.3 µM) | 7.8 | 30 |  |  |  |  |  |  | 
11 | COc1n[nH]c2ncc(/C=C/C(=O)N(C)Cc3cc4ccccc4n3C)cc12 [VT-02-00046, (E)-3-(3-Methoxy-1H-pyrazolo[3,4-b]pyridin-5-yl)-N-methyl-N-(1-methyl-1H-indol-2-ylmethyl)-acrylamide] | > 32 | > 32 | > 32000 | > 32000 |  |  |  |  |  |  | 
12 | CCn1c(=O)[nH]c2ncc(/C=C/C(=O)N(C)Cc3cc4ccccc4s3)cc21 [VT-02-00049, (E)-N-(benzo[b]thiophen-2-ylmethyl)-3-(1-ethyl-2-oxo-2,3-dihydro-1H-imidazo[4,5-b]pyridin-6-yl)-N-methylacrylamide] | 0.5 (≈ 1.27 µM) | 0.5 (≈ 1.27 µM) | 0.48 | 31 | 44 |  |  |  |  |  | 
13 | CN(Cc1cc2ccccc2n1C)C(=O)/C=C/c1cnc2c(c1)CC(=O)N2 [VT-02-00050, (E)-N-methyl-N-((1-methyl-1H-indol-2-yl)methyl)-3-(2-oxo-2,3-dihydro-1H-pyrrolo[2,3-b]pyridin-5-yl)acrylamide] | 2 (≈ 5.55 µM) | 2 (≈ 5.55 µM) |  |  |  |  |  |  |  |  | 
14 | CCn1c(=O)[nH]c2ncc(/C=C/C(=O)N(C)Cc3nc4ccccc4s3)cc21 [VT-02-00054, (E)-N-(benzo[d]thiazol-2-ylmethyl)-3-(1-ethyl-2-oxo-2,3-dihydro-1H-imidazo[4,5-b]pyridin-6-yl)-N-methylacrylamide] | > 16 | > 16 |  |  |  |  |  |  |  |  | 
15 | CN(Cc1cc2ccccc2n1C)C(=O)/C=C/c1cnc2c(c1)C(C)(C)C(=O)N2 [VT-02-00055, (E)-3-(3,3-dimethyl-2-oxo-2,3-dihydro-1H-pyrrolo[2,3-b]pyridin-5-yl)-N-methyl-N-((1-methyl-1H-indol-2-yl)methyl)acrylamide] | 0.25 (≈ 0.644 µM) | 0.25 (≈ 0.644 µM) | 60 | 2000 | 40.3 |  |  |  |  |  | 2
16 | CN(Cc1cc2ccccc2n1C)C(=O)/C=C/c1cnc2[nH]c(=O)oc2c1 [VT-02-00058, (E)-N-methyl-N-((1-methyl-1H-indol-2-yl)methyl)-3-(2-oxo-2,3-dihydrooxazolo[4,5-b]pyridin-6-yl)acrylamide] | > 16 | > 16 |  |  |  |  |  |  |  |  | 
17 | CN(Cc1cc2ccccc2n1C)C(=O)/C=C/c1cnc2[nH]cnc2c1 [VT-02-00060, (E)-3-(3H-imidazo[4,5-b]pyridin-6-yl)-N-methyl-N-((1-methyl-1H-indol-2-yl)methyl)acrylamide] | > 16 | > 16 |  |  |  |  |  |  |  |  | 
18 | CN(Cc1cc2ccccc2s1)C(=O)/C=C/c1cnc2c(c1)C(C)(C)C(=O)N2 [VT-02-00066, (E)-N-(benzo[b]thiophen-2-ylmethyl)-3-(3,3-dimethyl-2-oxo-2,3-dihydro-1H-pyrrolo[2,3-b]pyridin-5-yl)-N-methylacrylamide] | 0.5 (≈ 1.28 µM) | 0.5 (≈ 1.28 µM) | 7.8 | 1000 | 29 |  |  |  |  |  | 4
19 | Cc1c(CN(C)C(=O)/C=C/c2cnc3c(c2)C(C)(C)C(=O)N3)sc2ccccc12 [VT-02-00069, (E)-3-(3,3-dimethyl-2-oxo-2,3-dihydro-1H-pyrrolo[2,3-b]pyridin-5-yl)-N-methyl-N-((3-methylbenzo[b]thiophen-2-yl)methyl)acrylamide] | 0.015 (≈ 0.037 µM) | 0.015 (≈ 0.037 µM) | 0.2 | 15 | 10 |  |  |  |  |  | 1
20 | CN(Cc1cc2ccccc2n1C)C(=O)/C=C/c1cnc2c(c1)C1(CCC1)C(=O)N2 [VT-02-00070, (E)-N-methyl-N-((1-methyl-1H-indol-2-yl)methyl)-3-(2′-oxo-1′,2′-dihydrospiro[cyclobutane-1,3′-pyrrolo[2,3-b]pyridine]-5′-yl)acrylamide] | 0.5 (≈ 1.25 µM) | 0.5 (≈ 1.25 µM) | < 0.000119 | 7.8 | 45 |  |  |  |  |  | 2
21 | Cc1c(CN(C)C(=O)/C=C/c2cnc3c(c2)C2(CCCC2)C(=O)N3)sc2ccccc12 [VT-02-00074, (E)-N-methyl-N-((3-methylbenzo[b]thiophen-2-yl)methyl)-3-(2′-oxo-1′,2′-dihydrospiro[cyclopentane-1,3′-pyrrolo[2,3-b]pyridine]-5′-yl)acrylamide] | 0.06 (≈ 0.139 µM) | 0.06 (≈ 0.139 µM) | 7.8 | 60 | 8 |  |  |  |  |  | 1
22 | Cc1c(CN(C)C(=O)/C=C/c2cnc3c(c2)C2(CCCCC2)C(=O)N3)sc2ccccc12 [VT-02-00075, (E)-N-methyl-N-((3-methylbenzo[b]thiophen-2-yl)methyl)-3-(2′-oxo-1′,2′-dihydrospiro[cyclohexane-1,3′-pyrrolo[2,3-b]pyridine]-5′-yl)acrylamide] | 0.5 (≈ 1.12 µM) | 0.5 (≈ 1.12 µM) | < 0.00191 | 0.00763 | 5 |  |  |  |  |  | 4
23 | Cn1c2c(c3ccccc31)CN(C(=O)/C=C/c1cnc3c(c1)C1(CCC1)C(=O)N3)CC2 [VT-02-00082, (E)-5′-(3-(5-methyl-3,4-dihydro-1H-pyrido[4,3-b]indol-2(5H)-yl)-3-oxoprop-1-enyl)spiro[cyclobutane-1,3′-pyrrolo[2,3-b]pyridin]-2′(1′H)-one] | > 8 | > 8 |  |  |  |  |  |  |  |  | 
